Measured values: patent US7105567B2, “3-substituted urea derivatives and medicinal use thereof” (Mitsubishi Pharma Corporation, priority 2000, dated 2006)
Counter-ions that a name gives are not always drawn.

Key:
[1] = system: C5a-Induced Decrease in Neutrophile in Cynomolgus Monkey; assay: C5a-induced decrease in neutrophile in cynomolgus monkey; assay type: in vivo; settings: 30 mg/kg orally, human C5a administered 4 hr later
Description: The action of the test compound on the decrease of neutrophile in peripheral blood, that occurs temporarily upon intravenous administration of human C5a to cynomolgus monkey, was evaluated. That is, the test compound was orally administered to cynomolgus monkey, and 4 hr later, human C5a was administered. The neutrophiles in peripheral blood were counted 2 min before and 1 min after administration of human C5a, and the rate (%) of decrease in neutrophiles in peripheral blood was calculated by the following formula. decrease rate (%)=100−[(neutrophiles in peripheral blood 1 min after administration of human C5a)/(neutrophiles in peripheral blood 2 min before administration of human C5a)]×100
Using the following formula, moreover, the inhibition rate (% inhibition) of decrease in neutrophiles in peripheral blood by the test compound was calculated. % inhibition=100−[(Test−Min)/(Max−Min)]×100 • Test: decrease rate of neutrophiles in peripheral blood when test compound and human C5a were administered • Min: decrease rate of neutrophiles in peripheral blood upon administration of administration medium for test compound and administration medium for human C5a • Max: decrease rate of neutrophiles in peripheral blood upon administration of administration medium for test compound and human C5a

C5a receptor = biological target: T1, C5a receptor (Homo sapiens, UniProt P21730); assay: C5a receptor binding assay ([125I]-human C5a, dcAMP-U-937 cells); settings: dcAMP-U-937 cell, [125I]-C5a 200 pM, 4° C. for 2 hr; read-out: IC50 value, concentration at which binding of [125I]-human C5a is inhibited by 50%
T1 construct: U-937 cell was stimulated with 1 mM dibutyryl cyclic AMP (dcAMP, SIGMA) for 2 days to express the C5a receptor; endogenous in cells; host or cells: U-937 cells (human histiocytic lymphoma line) differentiated with 1 mM dibutyryl cAMP for 2 days
T1 sequence (P21730 1-350): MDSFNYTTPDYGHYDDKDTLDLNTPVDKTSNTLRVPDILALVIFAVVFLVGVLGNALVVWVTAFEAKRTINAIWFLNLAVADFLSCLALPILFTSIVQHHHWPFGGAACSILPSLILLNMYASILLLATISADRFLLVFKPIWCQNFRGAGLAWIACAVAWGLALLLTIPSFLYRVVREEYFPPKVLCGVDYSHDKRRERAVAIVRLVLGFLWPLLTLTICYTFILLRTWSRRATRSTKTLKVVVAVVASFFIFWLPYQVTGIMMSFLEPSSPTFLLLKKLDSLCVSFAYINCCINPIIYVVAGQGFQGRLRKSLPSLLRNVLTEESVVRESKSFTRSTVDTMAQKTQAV
Description: The C5a receptor binding inhibitory action of C5a and the test compound was evaluated by a receptor binding assay comprising reacting human cell line U-937 (human histiocytic lymphoma line), which expresses the C5a receptor, with [^125I]-human C5a (Amersham Pharmacia Biotech) in a MultiScreen (MILLIPORE). First, U-937 cell was stimulated with 1 mM dibutyryl cyclic AMP (dcAMP, SIGMA) for 2 days to express the C5a receptor (dcAMP-U-937 cell), and suspended in a binding buffer [50 mM HEPES, 1 mM CaCl2, 5 mM MgCl2, 0.5% bovine serum albumin (BSA, SIGMA), 0.02% NaN3 (pH 7.2)] and stored at −80° C. The binding assay was started by the addition of 50 μL of dcAMP-U-937 cell suspension dissolved immediately before use, 25 μL of a binding buffer or a test compound solution, and 25 μL of [^125I]-C5a solution (final concentration 200 pM), to each well of the MultiScreen. […] After drying the MultiScreen, the radioactivity on the filter was measured using a gamma counter. The rate (% inhibition) of inhibition of C5a binding by the test compound was calculated by the following formula using the count value obtained without addition of the test compound as Total, the count value obtained with addition of non-labeled C5a as Non, and the count value obtained with addition of the test compound as Test. % Inhibition=100−[(Test−Non)/(Total−Non)]×100 […]

[2] = system: C5a stimulated neutrophile; assay: Action on increase of intracellular Ca2+ concentration of C5a stimulated neutrophile; assay type: cell-based, human
Description: A neutrophile fraction was separately taken from human peripheral venous blood using Lympholyte-poly (Cedarlane), and suspended in Hank's Balanced Salt Solution (HBSS, GIBCO BRL) supplemented with 1% fetal bovine serum (FBS). Then, Fura 2-AM (final concentration 5 μM, DOJINDO) was added to the neutrophile fraction (5×10^6 cells/mL), and the mixture was incubated at 37° C. for 40 min. The cells were washed by centrifugation and suspended to the concentration of 1×10^6 cells/mL. The intracellular Ca^2+ concentration was measured using a spectrophotofluorometer (CAF-110, JASCO Corporation), and calculated from the ratio (Ex340 value/Ex380 value) of fluorescent intensities at 500 nm upon excitation at 340 nm and 380 nm, the former being Ex340 value, the latter being Ex380 value. […] Then, Triton X-100 (final concentration 0.2%) was added and the cells were dissolved, and, sb2 value, which was the Ex 340 value then, and Rmax value, which was the Ex340 value/Ex380 value then, was measured. Then, EGTA (final concentration 3 mmol/L) was added and sf2 value, which was the Ex340 value then, and Rmin value, which was the Ex340/Ex380 value then, was measured. From these measurement results, the intracellular Ca^2+ concentration was calculated from the following formula. […]

[3] = system: C5a stimulated neutrophile; assay: Production of reactive oxygen species in C5a-stimulated neutrophile; assay type: cell-based; settings: human neutrophile, C5a 3 nmol/L, luminol luminescence; read-out: IC50 value, inhibition of production of reactive oxygen species in C5a stimulated neutrophile
Description: A neutrophile fraction was separately taken from human peripheral venous blood using Lympholyte-poly (Cedarlane), and suspended in Hank's Balanced Salt Solution (HBSS, GIBCO BRL) containing 1% fetal bovine serum (FBS) and 1 mmol/L of luminol (Wako Pure Chemical Industries, Ltd.). Reactive oxygen species was measured using a luminometer (MicroLumat, Berthold) for 96 well plate. That is, 1×10^5 cells/150 μL of neutrophile suspension and 25 μL of a test compound solution were added to a well, which was set in a MicroLumat set for 37° C. and stood for about 5 min. Then, 25 μL of C5a (final concentration 3 nmol/L) was added and luminescence produced by the reaction of the luminol and the reactive oxygen species was measured with the lapse of time for 15 min. The rate (% inhibition) of inhibition of the production of reactive oxygen species in C5a stimulated neutrophile by the test compound was calculated by the following formula, wherein the peak value of the production of reactive oxygen species derived by C5a without addition of the test compound is Max, the peak value of the production of reactive oxygen species without addition of the test compound and without C5a stimulation is Min, and the peak value of the production of reactive oxygen species derived by C5a with the addition of the test compound is Test. % inhibition=100−[(Test−Min)/(Max−Min)]×100 […]

[4] = system: C5a-stimulated neutrophile; assay: Migrating ability of C5a-stimulated neutrophile; assay type: cell-based; settings: 1.5 h; human neutrophile, C5a 100 pmol/L, chemotaxicell, 90 min; read-out: IC50 value, inhibition of migration of C5a-stimulated neutrophile
Description: A neutrophile fraction was separately taken from human peripheral venous blood using Lympholyte-poly (Cedarlane) and suspended in RPMI 1640 medium (GIBCO BRL) supplemented with 0.1% bovine serum albumin (BSA). To this neutrophile fraction (5×10^6 cells/mL) was added Calcein-AM (final concentration 5 μM, FUNAKOSHI), and the mixture was incubated at 37° C. for 30 min. The cells were washed by centrifugation and suspended to a concentration of 1×10^6 cells/mL. The migration was evaluated by adding neutrophiles to chemotaxicell (pore size: 3 μm, KURABO) and measuring the neutrophiles that migrated outside the chemotaxicell. First, 100 pmol/L of C5a solution was added to 24 well plate (500 μL/well) and chemotaxicell was set in the well. […] The fluorescent intensity of each well was measured by Cyto Fluor II (Ex: 485, Em: 530). The rate (% inhibition) of the inhibition of migration of C5a-stimulated neutrophile by the test compound was calculated by the following formula, wherein the fluorescence intensity of neutrophile that migrated by C5a stimulation without addition of the test compound is Max, the fluorescent intensity of neutrophile that migrated without addition of test compound and without C5a stimulation is Min, and the fluorescent intensity of neutrophile that migrated by C5a stimulation with the addition of the test compound is Test. % inhibition=100−[(Test−Min)/(Max−Min)]×100 […]

Q: With `CC(C)c1ccc(N(Cc2ccc(Br)cc2)C(=O)Nc2c(C(C)C)cccc2C(C)C)cc1` [Example 53, N-[(4-bromophenyl)methyl]-N′-(2,6-diisopropylphenyl)-N-(4-isopropylphenyl)urea] as the compound, how does the “% inhibition of decrease in neutrophiles in peripheral blood” value [1] read?
A: 74%

Q: Which melting point does the source give for `CC(C)c1ccc(N(Cc2cnn(Cc3ccc(C(F)(F)F)cc3)c2)C(=O)Nc2c(C(C)C)cccc2C(C)C)cc1` [Example 61, N′-(2,6-diisopropylphenyl)-N-(4-isopropylphenyl)-N-{[1-(4-trifluoromethylbenzyl)pyrazol-4-yl]methyl}urea] here?
A: 134 to 135 °C

Q: For `CC(C)c1cccc(C(C)C)c1NC(=O)N(Cc1ccc(N(C)C)cc1)c1ccc(F)cc1` [Example 1, N′-(2,6-diisopropylphenyl)-N-[(4-dimethylaminophenyl)methyl]-N-(4-fluorophenyl)urea], which melting point is on record?
A: 124 to 125 °C

Q: With `CC(C)c1ccc(N(Cc2ccc(N(C)C)cc2)C(=O)Nc2c(C(C)C)cccc2C(C)C)cc1` (as salt: fumarate) [Example 34, N′-(2,6-diisopropylphenyl)-N-[(4-dimethylaminophenyl)methyl]-N-(4-isopropylphenyl)urea 9/10 fumarate] as the compound, how does the melting point read?
A: 203 to 206 °C

Q: Which IC50 (C5a receptor) does the source give for `CC(C)c1ccc(N(Cc2ccc(N(C)C)cc2)C(=O)Nc2c(C(C)C)cccc2C(C)C)cc1` [Example 34, N′-(2,6-diisopropylphenyl)-N-[(4-dimethylaminophenyl)methyl]-N-(4-isopropylphenyl)urea 9/10 fumarate] here?
A: 100 nM

Q: What about the “agonistic action (increase in intracellular Ca2+ induced by the compound)” value ([2]; compound 10 μmol/L, human neutrophile) of the same compound?
A: not found

Q: What about the IC50 ([2]; human peripheral blood neutrophile, recombinant human C5a 100 pmol/L, Fura 2-AM, read-out: IC50 value, inhibition of increase in intracellular Ca2+ concentration of C5a-stimulated neutrophile) of the same compound?
A: 5 nM

Q: And the IC50 [3]?
A: 10 nM

Q: What about the IC50 [4] of the same compound?
A: 100 nM
